Test results taken from patent US20100120700A1, “METHODS AND COMPOSITIONS FOR TREATING CERVICAL CANCER” (priority 2000, published 2010).
Where “and” joins values, the source holds several entries; their conditions need not be identical. Equal entries are not always repeated.

Tests used:
Experiment in all cases: G assay PDZ-PL binding
Settings in all cases: peptide 10 uM, protein 5
[1] = molecular target: T1, AIPC domain 1 (Homo sapiens, UniProt O15018)
T1 construct: made in house; host or cells: E. coli (DH5alpha, BL21 or JM109), vector pGEX-3X
Method: (§1) (1) A PDZ-domain polypeptide is bound to a surface, e.g. a protein binding surface. In a preferred embodiment, a GST/PDZ fusion protein containing one or more PDZ domains is bound to a polystyrene 96-well plate. […] In one embodiment, the GST/PDZ fusion protein is bound via an anti-GST antibody that is coated onto the 96-well plate. Adequate binding to the plate can be achieved when: • a. 100 uL per well of 5 ug/mL goat anti-GST polyclonal antibody (Pierce) in PBS is added to a polystyrene 96-well plate (e.g., Num Polysorb) at 4° C. for 12 hours. • b. The plate is blocked by addition of 200 uL per well of PBS/BSA for 2 hours at 4° C. • c. The plate is washed 3 times with PBS. • d. 50 uL per well of 5 ug/mL GST/PDZ fusion protein) or, as a negative control, GST polypeptide alone (i.e. not a fusion protein) in PBS/BSA is added to the plate for 2 hours at 4° C. • e. The plate is again washed 3 times with PBS. […]
(§2) (3) The binding of the biotinylated peptide to the GST/PDZ fusion protein surface can be detected using a variety of methods and detectors known to one of skill in the art. In one embodiment, 100 uL per well of 0.5 ug/mL streptavidin-horse radish peroxidase (HRP) conjugate dissolved in BSA/PBS is added and allowed to react for 20 minutes at 4° C. The plate is then washed 5 times with 50 mM Tris pH 8.0 containing 0.2% Tween 20, and developed by addition of 100 uL per well of HRP-substrate solution (TMB, Dako) for 20 minutes at room temperature (RT). The reaction of the HRP and its substrate is terminated by addition of 100 uL per well of 1M sulfuric acid, and the absorbance of each well of the plate is read at 450 nm.
(§3) (4) Specific binding of a PL peptide and a PDZ domain polypeptide is determined by comparing the signal from the well(s) in which the PL peptide and PDZ domain polypeptide are combined, with the background signal(s). The background signal is the signal found in the negative control(s). Typically a specific or selective reaction will be at least twice background signal, more typically more than 5 times background, and most typically 10 or more times the background signal. In addition, a statistically significant reaction will involve multiple measurements of the reaction with the signal and the background differing by at least two standard errors, more typically four standard errors, and most typically six or more standard errors. Correspondingly, a statistical test (e.g. a T-test) comparing repeated measurements of the signal with-repeated measurements of the background will result in a p-value<0.05, more typically a p-value<0.01, and most typically a p-value<0.001 or less. As noted, in an embodiment of the “G” assay, the signal from binding of a given PL peptide to immobilized (surface bound) GST polypeptide alone is one suitable negative control (sometimes referred to as “B 1”). Because all measurement are done in multiples (i.e. at least duplicate) the arithmetic mean (or, equivalently, average.) of several measurements is used in determining the binding, and the standard error of the mean is used in determining the probable error in the measurement of the binding. The standard error of the mean of N measurements equals the square root of the following: the sum of the squares of the difference between each measurement and the mean, divided by the product of (N) and (N−1). Thus, in one embodiment, specific binding of the PDZ protein to the platebound peptide is determined by comparing the mean signal (“mean S”) and standard error of the signal (“SE”) for a particular PL-PDZ combination with the mean B1.
(§4) For convenience, the assay conditions described in this section are referred to as the “G’ assay” and the “G” assay,” with the specific conditions described in the preceding section on G assays being referred to as the “G° assay.” The “G′ assay” is identical to the “G° assay” except at step (2) the peptide concentration is 10 uM instead of 20 uM. […]

[2] = molecular target: T2, APXL1 domain 1 (Homo sapiens, UniProt Q13796)
T2 construct: made in house; host or cells: E. coli (DH5alpha, BL21 or JM109), vector pGEX-3X
Method: as §1, §2, §3, §4

[3] = molecular target: T3, CASK domain 1 (Homo sapiens, UniProt O14936)
T3 construct: made in house; host or cells: E. coli (DH5alpha or BL-21)
Method: as §1, §2, §3, §4

[4] = molecular target: T4, DLG1 domain 3 (Homo sapiens, UniProt Q12959)
T4 construct: made in house; host or cells: E. coli (DH5alpha or BL-21)
Method: as §1, §2, §3, §4

[5] = molecular target: T5, EBP50 #168.2 domain 2 (Homo sapiens, UniProt O14745)
T5 construct: made in house; host or cells: E. coli (DH5alpha, BL21 or JM109)
Method: as §1, §2, §3, §4

[6] = molecular target: T6, EBP50 #341.1 domain 1 (Homo sapiens, UniProt O14745)
T6 construct: made in house; host or cells: E. coli (DH5alpha or BL-21)
Method: as §1, §2, §3, §4

[7] = molecular target: T7, ELFIN 1 domain 1 (Homo sapiens, UniProt O00151, G21R)
T7 construct: made in house; host or cells: E. coli (DH5alpha, BL21 or JM109), vector pGEX-3X
Method: as §1, §2, §3, §4

[8] = molecular target: T8, FLJ12615 domain 1 (Homo sapiens, UniProt Q8N3R9)
T8 construct: made in house; host or cells: E. coli (DH5alpha, BL21 or JM109)
Method: as §1, §2, §3, §4

[9] = molecular target: T9, GTPase domain 1 (Homo sapiens, UniProt Q96FS4)
T9 construct: made in house; host or cells: E. coli (DH5alpha, BL21 or JM109)
Method: as §1, §2, §3, §4

[10] = molecular target: T10, KIAA1095 domain 1 (Homo sapiens, UniProt Q9UPQ7)
T10 construct: made in house; host or cells: E. coli (DH5alpha, BL21 or JM109)
Method: as §1, §2, §3, §4

[11] = molecular target: T11, MINT1 domain 1, 2 (Homo sapiens, UniProt Q02410)
T11 construct: When more than one PDZ domain was cloned, the DNA portion cloned represents the PDZ domains and the cDNA portion located between individual domains; made in house; host or cells: E. coli (DH5alpha, BL21 or JM109), vector pGEX-3X
Method: as §1, §2, §3, §4

[12] = molecular target: T12, PAR3 #182.1 domain 3 (Homo sapiens, UniProt Q8TEW0)
T12 construct: made in house; host or cells: E. coli (DH5alpha or BL-21)
Method: as §1, §2, §3, §4

[13] = molecular target: T13, TIAM 2 domain 1 (Homo sapiens, UniProt Q8IVF5)
T13 construct: made in house; host or cells: E. coli (DH5alpha, BL21 or JM109)
Method: as §1, §2, §3, §4

T10 sequence (Q9UPQ7 with tags, fused parts or gaps): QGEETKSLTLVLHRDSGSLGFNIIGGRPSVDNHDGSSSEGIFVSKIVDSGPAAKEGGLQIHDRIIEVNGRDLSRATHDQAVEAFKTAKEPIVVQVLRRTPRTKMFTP
T11 sequence (Q02410 651-828 limits assumed): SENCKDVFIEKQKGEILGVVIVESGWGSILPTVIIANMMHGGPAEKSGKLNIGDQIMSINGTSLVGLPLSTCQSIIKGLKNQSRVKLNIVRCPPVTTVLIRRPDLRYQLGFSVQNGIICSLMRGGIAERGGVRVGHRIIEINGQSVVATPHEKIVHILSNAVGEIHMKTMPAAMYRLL
T2 sequence (Q13796 with tags, fused parts or gaps): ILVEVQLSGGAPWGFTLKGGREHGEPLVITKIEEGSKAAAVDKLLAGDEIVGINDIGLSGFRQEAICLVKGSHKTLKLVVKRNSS
T6 sequence (O14745 with tags, fused parts or gaps): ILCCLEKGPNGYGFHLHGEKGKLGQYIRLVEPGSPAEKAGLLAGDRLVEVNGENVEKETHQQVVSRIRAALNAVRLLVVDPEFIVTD
T7 sequence (O00151 2-93 G21R): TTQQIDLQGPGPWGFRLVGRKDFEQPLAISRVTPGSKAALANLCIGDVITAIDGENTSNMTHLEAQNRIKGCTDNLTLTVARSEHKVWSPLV
T8 sequence (Q8N3R9 247-343): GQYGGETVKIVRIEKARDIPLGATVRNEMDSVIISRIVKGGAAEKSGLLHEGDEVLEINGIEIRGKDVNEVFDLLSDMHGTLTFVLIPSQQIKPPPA
T12 sequence (Q8TEW0 579-681): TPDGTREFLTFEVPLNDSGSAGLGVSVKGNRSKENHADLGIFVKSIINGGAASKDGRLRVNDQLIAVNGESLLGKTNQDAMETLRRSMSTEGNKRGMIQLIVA
T9 sequence (Q96FS4 680-767): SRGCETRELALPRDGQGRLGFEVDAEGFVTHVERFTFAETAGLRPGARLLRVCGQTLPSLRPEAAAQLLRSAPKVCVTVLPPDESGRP
T3 sequence (O14936 486-575): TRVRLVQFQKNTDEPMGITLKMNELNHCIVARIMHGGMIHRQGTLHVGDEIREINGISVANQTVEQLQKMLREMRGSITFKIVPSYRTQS
T1 sequence (O15018 with tags, fused parts or gaps): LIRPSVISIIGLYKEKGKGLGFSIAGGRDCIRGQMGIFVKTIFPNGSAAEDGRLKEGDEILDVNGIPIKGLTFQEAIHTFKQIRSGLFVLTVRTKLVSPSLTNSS
T13 sequence (Q8IVF5 885-981): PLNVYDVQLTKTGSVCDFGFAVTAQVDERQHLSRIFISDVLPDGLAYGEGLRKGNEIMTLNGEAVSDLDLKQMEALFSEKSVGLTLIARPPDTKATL
T5 sequence (O14745 with tags, fused parts or gaps): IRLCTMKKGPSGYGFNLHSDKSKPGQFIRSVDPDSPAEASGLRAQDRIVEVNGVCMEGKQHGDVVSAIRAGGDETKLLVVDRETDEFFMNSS

## 20 mer peptide corresponding to the C-terminus of HPV16 E6 (PDZ ligand), biotinylated in binding assays; ends SSRTRRETQL (SEQ ID NO: 13) [HPV E6 #16]
[1]; A450 nm
  Ave OD: 0.5595
[1]; vs GST only well
  OD S/N: 2.30
[2]; A450 nm
  Ave OD: 0.4605 and 0.708
[2]; vs GST only well
  OD S/N: 3.14 and 2.96
[3]; A450 nm
  Ave OD: 0.36
[3]; vs GST only well
  OD S/N: 1.15
[4]; A450 nm
  Ave OD: 0.3975
[4]; vs GST only well
  OD S/N: 2.45
[5]; A450 nm
  Ave OD: 0.3455
[5]; vs GST only well
  OD S/N: 1.99
[6]; A450 nm
  Ave OD: 0.43
[6]; vs GST only well
  OD S/N: 1.65
[7]; A450 nm
  Ave OD: 0.66
[7]; vs GST only well
  OD S/N: 3.39
[8]; A450 nm
  Ave OD: 0.4605
[8]; vs GST only well
  OD S/N: 2.24
[9]; A450 nm
  Ave OD: 0.3505
[9]; vs GST only well
  OD S/N: 1.12
[10]; A450 nm
  Ave OD: 2.7045 and 1.711
[10]; vs GST only well
  OD S/N: 13.13 and 7.96
[11]; A450 nm
  Ave OD: 0.3655 and 0.6075
[11]; vs GST only well
  OD S/N: 1.42 and 2.11
[12]; A450 nm
  Ave OD: 0.445
[12]; vs GST only well
  OD S/N: 2.07
[13]; A450 nm
  Ave OD: 0.356
[13]; vs GST only well
  OD S/N: 2.05
